Where a name gives a salt, the structure may show the parent alone. Read-outs that look alike come from different tables or passages of the source.
Assays:
Format in all cases: binding, sheep
[1] = system: IgG fraction of antiserum raised to Immunogen I
Experimental: (§1) An aqueous solution of each immunogen was formulated with Freund's Complete Adjuvant (FCA) to form an emulsion consisting of 2 mg/ml*immunogen in 50% (v/v) FCA. Three sheep were immunised with this emulsion (1° immunisation), 0.25 ml being intramuscularly injected at each of four sites in the flank of each animal. Subsequent immunizations (boosts) contained 1 mg/ml*immunogen. All boosts were emulsified in 50% (v/v) Freund's Incomplete Adjuvant (FIA) and were administered in the same manner as the 1° immunisation, at monthly intervals. Blood sampling took place 7 to 14 days after each boost. *The general procedure for immunogen administration is outlined above, however, it was necessary to deviate from this protocol in some cases, due to reduced immunogen concentrations (Immunogens II, IV, VII and VIII) and/or amount available (Immunogen VIII). Any deviations from the protocol described are outlined in Table 5 below and highlighted in bold.
(§2) The wells of an enhanced binding 96 well polystyrene microtiter plate were coated with IgG fraction of antiserum raised to Immunogen I or II, diluted in 10 mM Tris, pH8.5 (125 μl/well). The appropriate antibody coating dilution was determined using standard ELISA checkerboard techniques. The plate was incubated overnight at 4° C., washed 4 times over 10 minutes with Tris buffered saline containing Tween 20 (TBST) and tapped dry. Standard solutions (JWH-018 for Immunogens I and II) were applied at 0, 0.625, 1.25, 2.5, 5, 10, 20 and 40 ng/ml and 50 μl of each was added to the appropriate wells. 75 μl of conjugate (appropriate hapten-HRP) diluted in Tris buffer (pH 7.2) containing EDTA, D-mannitol, sucrose, thimerosal and BSA, was added to each of the wells. The appropriate dilution of conjugate was also determined using standard ELISA checkerboard techniques. The plate was incubated at 25° C. for 1 hour. Excess unbound conjugate was removed by washing 6 times over a 10 minute period with TBST. 125 μl of tetramethylbenzidine (TMB) substrate solution was added to each well of the plate that was then incubated for 20 minutes in the dark at room temperature. The reaction was terminated by addition of 125 μl 0.2M H2SO4 to each well. The absorbance was then measured at 450 nm using a microtiter plate reader. The data are inputted to a computer program called ‘KC Junior’. It is a 4 parameter fit curve and allow the calculation of concentrations between the standard runs. This program is used to calculate the IC50s by dividing the 0 ng/ml OD value by 2 and obtaining the concentration value from the curve for this OD.
In a similar manner to that described above, the wells of a 96-well microtiter plate were coated with the IgG fraction of the antiserum raised to Immunogens I or II. Standard solutions (JWH-018 for Immunogen I and II) were applied at 0, 0.625, 1.25, 2.5, 5, 10, 20 and 40 ng/ml and conjugate was employed as detection reagent.
(§3) The data set out in Tables 7-10 are generated using antibodies raised against the indicated Immunogens in a competitive binding assay with the indicated tracers, using the indicated standards
(§4) In order to determine the specificity of the competitive ELISAs, standard solutions of a range of structurally similar synthetic cannabinoids and their metabolites were prepared in TBST.
(§5) Using the calibration curves generated and employing a single level of cross reactants, these were used to determine the cross-reactivity of each immunoassay with these substances. These are the standards used for the IC50 and cross-reactivity data generation: […]

[2] = system: IgG fraction of antiserum raised to Immunogen IV
Experimental: as §1, §2
(§6) In a similar manner to that described above, the wells of a 96-well microtiter plate were coated with the IgG fraction of the antiserum raised to Immunogens IV, VII or VIII. Standard solutions (JWH-018 for Immunogens IV and VIII, JWH-015 for Immunogen VII) were prepared in TBST at 0, 1.25, 2.5, 5, 10, 20, 40 and 80 ng/ml and conjugate was employed as detection reagent.
as §3, §4, §5

[3] = system: IgG fraction of antiserum raised to Immunogen VIII
Experimental: as §1, §2, §6, §3, §4, §5

[4] = system: IgG fraction of antiserum raised to Immunogen VII
Experimental: as §1, §2, §6, §3, §4, §5

[5] = Antibody to Immunogen I, cross-reactants at 100 ng/ml, 1000 ng/ml, standard JWH-018
[6] = Antibody to Immunogen IV, cross-reactants at 100 ng/ml, 1000 ng/ml, standard JWH-018
[7] = Antibody to Immunogen VIII, cross-reactants at 100 ng/ml, 1000 ng/ml, standard JWH-018
[8] = Antibody to Immunogen VII, cross-reactants at 100 ng/ml, 1000 ng/ml, standard JWH-015

Compound: CCCCn1cc(C(=O)c2ccc(C)c3ccccc23)c2ccccc21 [JWH-073 4-methylnaphthyl analogue]
- % B/B0 [1, 5]: 45.54%
- % B/B0 [2, 6]: 7.01%
- % B/B0 [3, 7]: 19.75%
- % B/B0 [4, 8]: 78.36%

Compound: COc1ccc(C(=O)c2c(C)n(CCN3CCOCC3)c3ccccc23)cc1 [WIN-48,098, Pravadoline]
- % B/B0 [1, 5]: 90.05%
- % B/B0 [2, 6]: 91.64%
- % B/B0 [3, 7]: 97.90%
- % B/B0 [4, 8]: 92.41%

Compound: (−)-CP 55,940
- % B/B0 [1, 5]: 98.27%
- % B/B0 [2, 6]: 93.02%
- % B/B0 [3, 7]: 97.58%
- % B/B0 [4, 8]: 101.15%

Compound: NCCc1c[nH]c2ccc(O)cc12 [Serotonin HCl]
- % B/B0 [1, 5]: 99.65%
- % B/B0 [2, 6]: 95.40%
- % B/B0 [3, 7]: 100.36%
- % B/B0 [4, 8]: 99.83%

Compound: COc1ccc(C(=O)c2cn(CCCC(C)O)c3ccccc23)cc1 (centres unmarked) [RCS-4 N-(4-hydroxypentyl) metabolite]
- % B/B0 [1, 5]: 65.71%
- % B/B0 [2, 6]: 59.16%
- % B/B0 [3, 7]: 8.89%
- % B/B0 [4, 8]: 95.72%

Compound: CCCCCC(C)n1c(C)c(C(=O)c2cccc3ccccc23)c2ccccc21 (centres unmarked) [JWH-011]
- % B/B0 [1, 5]: 62.13%
- % B/B0 [2, 6]: 99.19%
- % B/B0 [3, 7]: 97.49%
- % B/B0 [4, 8]: 57.43%

Compound: CCCCCCCC(C)(C)c1ccc(C2CCCC(O)C2)c(O)c1 (centres unmarked) [CP-49,497-C8-homologue]
- % B/B0 [1, 5]: 101.11%
- % B/B0 [2, 6]: 94.66%
- % B/B0 [3, 7]: 104.88%
- % B/B0 [4, 8]: 98.55%

Compound: CCCCCn1cc(C(=O)c2cccc3ccc(CC)cc23)c2ccccc21 [JWH-210 7-ethylnaphthyl isomer]
- % B/B0 [1, 5]: 73.11%
- % B/B0 [2, 6]: 27.07%
- % B/B0 [3, 7]: 50.90%
- % B/B0 [4, 8]: 100.55%

Compound: CCCCCn1cc(C(=O)Cc2ccc(OC)cc2)c2ccccc21 [JWH-201]
- % B/B0 [1, 5]: 77.14%
- % B/B0 [2, 6]: 59.03%
- % B/B0 [3, 7]: 8.26%
- % B/B0 [4, 8]: 100.25%

Compound: CCCCCCC(C)(C)c1cc(O)c2c(c1)OC(C)(C)[C@H]1CC=C(CO)C[C@H]21 [HU-211, Dexanabinol]
- % B/B0 [1, 5]: 103.36%
- % B/B0 [2, 6]: 93.37%
- % B/B0 [3, 7]: 92.70%
- % B/B0 [4, 8]: 96.78%

Compound: CCCCCn1cc(C(=O)c2ccc(OC)cc2)c2ccccc21 [RCS-4]
- % B/B0 [1, 5]: 80.46%
- % B/B0 [2, 6]: 19.21%
- % B/B0 [3, 7]: 5.93%
- % B/B0 [4, 8]: 93.51%

Compound: CCCCCn1cc(C(=O)c2c(CC)ccc3ccccc23)c2ccccc21 [JWH-210 2-ethylnaphthyl isomer]
- % B/B0 [1, 5]: 81.37%
- % B/B0 [2, 6]: 53.97%
- % B/B0 [3, 7]: 73.51%
- % B/B0 [4, 8]: 96.13%

Compound: CCCCCn1cc(C(=O)Cc2ccccc2OC)c2ccccc21 [JWH-250]
- % B/B0 [1, 5]: 78.94%
- % B/B0 [2, 6]: 41.08%
- % B/B0 [3, 7]: 9.40%
- % B/B0 [4, 8]: 97.23%

Compound: CCCCCn1cc(C(=O)C23CC4CC(CC(C4)C2)C3)c2ccccc21 [JWH 018 adamantyl analog]
- % B/B0 [1, 5]: 95.94%
- % B/B0 [2, 6]: 99.02%
- % B/B0 [3, 7]: 10.97%
- % B/B0 [4, 8]: 94.48%

Compound: COc1ccccc1CC(=O)c1cn(CCCCCC(=O)O)c2ccccc12 [JWH 250 N-(5-carboxypentyl) metabolite]
- % B/B0 [1, 5]: 86.21%
- % B/B0 [2, 6]: 89.88%
- % B/B0 [3, 7]: 89.30%
- % B/B0 [4, 8]: 97.60%

Compound: CCCCCn1cc(C(=O)Cc2ccc(Cl)cc2)c2ccccc21 [JWH-206, JWH-203 4-chloro isomer]
- % B/B0 [1, 5]: 75.96%
- % B/B0 [2, 6]: 65.63%
- % B/B0 [3, 7]: 10.55%
- % B/B0 [4, 8]: 97.17%

Compound: CCCCCn1cc(C(=O)c2cccc(OC)c2)c2ccccc21 [RCS-4 3-methoxy isomer]
- % B/B0 [1, 5]: 31.19%
- % B/B0 [2, 6]: 25.65%
- % B/B0 [3, 7]: 10.95%
- % B/B0 [4, 8]: 94.72%

Compound: CCCCCCC(C)(C)c1cc(OC)c([C@@H]2C=C(CO)[C@@H]3C[C@H]2C3(C)C)c(OC)c1 [HU-308]
- % B/B0 [1, 5]: 101.35%
- % B/B0 [2, 6]: 94.03%
- % B/B0 [3, 7]: 89.77%
- % B/B0 [4, 8]: 95.95%

Compound: CCCCCn1cc(C(=O)c2ccc3ccccc3c2)c2ccccc21 [JWH 018 2′-naphthyl isomer]
- % B/B0 [1, 5]: 75.90%
- % B/B0 [2, 6]: 28.13%
- % B/B0 [3, 7]: 14.94%
- % B/B0 [4, 8]: 94.98%

Compound: CCCCn1c(O)c(C(=O)c2cccc3ccccc23)c2ccccc21 [2-OH JWH-073, JWH-073 2-hydroxyindole metabolite]
- % B/B0 [1, 5]: 89.62%
- % B/B0 [2, 6]: 89.63%
- % B/B0 [3, 7]: 93.42%
- % B/B0 [4, 8]: 92.65%

Compound: CCCCCn1cc(C(=O)c2c(OC)ccc3ccccc23)c2ccccc21 [JWH-081 2-methoxynaphthyl isomer]
- % B/B0 [1, 5]: 69.58%
- % B/B0 [2, 6]: 27.67%
- % B/B0 [3, 7]: 58.20%
- % B/B0 [4, 8]: 83.43%

Compound: CCCCCn1ccc(C(=O)c2cccc3ccccc23)c1 [JWH-030]
- % B/B0 [1, 5]: 61.17%
- % B/B0 [2, 6]: 93.17%
- % B/B0 [3, 7]: 94.25%
- % B/B0 [4, 8]: 89.66%

Compound: CCCCCn1c(O)c(C(=O)c2cccc3ccccc23)c2ccccc21 [2-OH JWH-018, JWH-018 2-hydroxyindole metabolite]
- % B/B0 [1, 5]: 95.37%
- % B/B0 [2, 6]: 100.14%
- % B/B0 [3, 7]: 101.36%
- % B/B0 [4, 8]: 95.08%

Compound: CCCCCn1cc(C(=O)Cc2cccc(OC)c2)c2ccccc21 [JWH-302]
- % B/B0 [1, 5]: 84.66%
- % B/B0 [2, 6]: 45.67%
- % B/B0 [3, 7]: 7.97%
- % B/B0 [4, 8]: 104.92%

Compound: O=C(c1ccc2ccccc2c1)c1cn(CCN2CCOCC2)c2ccccc12 [JWH-200 2′-naphthyl isomer]
- % B/B0 [1, 5]: 28.57%
- % B/B0 [2, 6]: 92.29%
- % B/B0 [3, 7]: 96.12%
- % B/B0 [4, 8]: 94.65%

Compound: CCCCCCC(C)(C)C1=CC(=O)C(C2CCCC(O)C2)=CC1=O (centres unmarked) [CP-47,497-para-quinone analogue]
- % B/B0 [1, 5]: 100.26%
- % B/B0 [2, 6]: 97.33%
- % B/B0 [3, 7]: 88.11%
- % B/B0 [4, 8]: 93.29%

Compound: COc1ccccc1CC(=O)c1cn(CCCCCO)c2ccccc12 [JWH 250 N-(5-hydroxypentyl) metabolite]
- % B/B0 [1, 5]: 75.47%
- % B/B0 [2, 6]: 76.22%
- % B/B0 [3, 7]: 42.79%
- % B/B0 [4, 8]: 96.13%

Compound: CCCCCn1cc(C(=O)Cc2ccccc2OC)c2cc(O)ccc21 [JWH 250 5-hydroxyindole metabolite]
- % B/B0 [1, 5]: 100.75%
- % B/B0 [2, 6]: 84.05%
- % B/B0 [3, 7]: 67.19%
- % B/B0 [4, 8]: 99.88%

Compound: CCCCCn1c(C)c(C(=O)c2ccc(OC)c3ccccc23)c2ccccc21 [JWH-098]
- % B/B0 [1, 5]: 77.58%
- % B/B0 [2, 6]: 44.03%
- % B/B0 [3, 7]: 59.80%
- % B/B0 [4, 8]: 82.85%

Compound: CCCCCCC(C)(C)c1cc(O)c2c(c1)OC(C)(C)[C@@H]1CC=C(CO)C[C@@H]21 [HU-210]
- % B/B0 [1, 5]: 102.57%
- % B/B0 [2, 6]: 92.53%
- % B/B0 [3, 7]: 93.42%
- % B/B0 [4, 8]: 100.39%

Compound: (−)-11-nor-9-Carboxy-delta9-THC
- % B/B0 [1]: 100.47%
- % B/B0 [2]: 93.08%
- % B/B0 [3]: 103.36%
- % B/B0 [4]: 98.72%

Compound: COc1ccc(C(=O)c2c(C)n(CCN3CCOCC3)c3cc(I)ccc23)cc1 [AM-630, 6-Iodopravadoline]
- % B/B0 [1, 5]: 91.12%
- % B/B0 [2, 6]: 90.17%
- % B/B0 [3, 7]: 89.88%
- % B/B0 [4, 8]: 99.88%
